Source: patent publication US11554124B2, “Hematopoiesis-enhancing agent” (priority 2018, dated 2023)

Test system: SAM present in erythroblasts
Experiment: Abundance of SAM in bone marrow erythroblasts of treated mice (mass spectrometry)
Assay type: in vivo, mouse
Details: CLEU 50 mg/body i.p., bone marrow subset II, Day 2, vs PBS
Procedure: Wild-type mice with a genetic background of C57BL/6J were purchased from Charles River Laboratories, Inc. Mice at 8 to 14 weeks of age were used for analysis. For CLEU treatment (50 mg/body), a solution of cycloleucine (CLEU) was prepared by diluting cycloleucine (CLEU) (Sigma) in PBS (50 mg/ml), and 1 ml of the CLEU solution was administered intraperitoneally. For AKBA treatment (2 mg/body), 2 mg AKBA (Enzo Life Sciences)/20% DMSO/1 mL PBS solution was administered intraperitoneally. Vehicle without AKBA was used as a control. For measuring complete blood count of peripheral blood, peripheral blood was collected from facial veins and counted by use of an automated animal blood cell counter (microsemi LC-662). All of the experiments conducted in this study were approved by the Animal Experiment Committee of the Environmental Safety Committee of Tohoku University. BM cells and spleen cells were harvested in a conventional manner. Cells were stained with combinations of antibodies specific to erythroblasts and mature cells, to thereby identify them. The cells were visualized with antibody and streptavidin-peridinin chlorophyll protein-cyanin 5.5. […] Flow cytometric analysis and cell sorting were performed according to the manufacturer's protocol using FACS AriaII (BD), and then the obtained data were analyzed using FlowJo software (TreeStar). […]

NC1(C(=O)O)CCCC1 [CLEU, cycloleucine]
abundance of SAM present in erythroblasts: reduce the abundance of SAM
